{"source": "patent US8697692B2", "about": "“Pyrrolo [3,2-c] pyridine-4-one 2-indolinone protein kinase inhibitors” (Shanghai Hengrui Pharmaceutical Co., Ltd., priority 2006, dated 2014)", "key": {"[1]": {"target": "T1, EGFR kinase (Homo sapiens, UniProt P00533)", "T1 construct": "purchased Cell signaling technology #7908", "T1 sequence (P00533 25-1210)": "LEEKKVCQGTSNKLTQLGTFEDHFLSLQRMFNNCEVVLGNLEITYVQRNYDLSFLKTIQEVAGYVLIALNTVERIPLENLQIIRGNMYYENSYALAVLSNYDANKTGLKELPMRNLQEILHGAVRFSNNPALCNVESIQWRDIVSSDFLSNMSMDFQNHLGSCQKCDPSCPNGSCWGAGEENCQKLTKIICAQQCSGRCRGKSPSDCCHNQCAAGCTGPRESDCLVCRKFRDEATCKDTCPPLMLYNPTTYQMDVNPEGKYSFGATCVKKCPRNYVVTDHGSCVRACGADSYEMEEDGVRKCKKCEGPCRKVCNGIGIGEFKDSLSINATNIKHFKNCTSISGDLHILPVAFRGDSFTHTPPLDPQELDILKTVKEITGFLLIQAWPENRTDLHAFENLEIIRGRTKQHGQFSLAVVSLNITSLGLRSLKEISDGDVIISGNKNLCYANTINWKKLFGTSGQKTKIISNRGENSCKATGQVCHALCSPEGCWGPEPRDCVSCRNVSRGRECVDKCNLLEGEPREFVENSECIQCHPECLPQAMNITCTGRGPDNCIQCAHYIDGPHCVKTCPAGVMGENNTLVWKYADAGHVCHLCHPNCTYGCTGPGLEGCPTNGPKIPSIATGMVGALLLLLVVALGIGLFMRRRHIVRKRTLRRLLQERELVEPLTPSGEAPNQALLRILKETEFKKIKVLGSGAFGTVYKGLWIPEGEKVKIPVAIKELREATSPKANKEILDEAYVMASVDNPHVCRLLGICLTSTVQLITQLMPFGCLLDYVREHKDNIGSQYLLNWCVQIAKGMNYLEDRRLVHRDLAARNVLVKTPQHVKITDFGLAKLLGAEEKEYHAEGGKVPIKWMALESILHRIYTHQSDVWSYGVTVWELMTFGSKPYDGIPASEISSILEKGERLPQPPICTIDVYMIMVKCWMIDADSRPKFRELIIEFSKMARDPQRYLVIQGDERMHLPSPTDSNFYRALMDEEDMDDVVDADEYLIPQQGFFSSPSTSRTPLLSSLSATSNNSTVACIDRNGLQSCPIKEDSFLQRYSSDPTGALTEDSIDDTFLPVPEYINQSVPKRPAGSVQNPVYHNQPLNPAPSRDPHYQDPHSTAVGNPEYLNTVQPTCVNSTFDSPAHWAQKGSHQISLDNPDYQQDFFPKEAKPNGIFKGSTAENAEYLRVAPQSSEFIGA", "assay": "EGFR Kinase Assay", "assay_type": "biochemical", "details": "20 μM ATP, 25° C. 45 minutes", "protocol": "EGFR kinase activity in vitro was measured as described below:\na. Wash Buffer (PBS-T Buffer): 1×PBS (137 mM NaCl, 2.7 mM KCl, 4.3 mM Na2HPO4, 1.4 mM KH2PO4, adjust the pH to 7.2) and 0.05% Tween-20.\n(§1) b. 1% Bovine Serum Albumin (BSA, Calbiochem #136593) in PBS-T.\nc. Stop Buffer: 50 mM EDTA, pH 8.0\nd. DELFIA® Europium-labeled Anti-mouse IgG (PerkinElmer Life Sciences #AD0124)\ne. DELFIA® Enhancement Solution (PerkinElmer Life Sciences #1244-105)\nf. DELFIA® Streptavidin coated, 96-well, yellow plate (PerkinElmer Life Sciences #AAAND-0005)\ng. EGFR kinase (supplied in 50 mM Tris-HCl (pH 8.0), 100 mM NaCl, 5 mM DTT, 15 mM reduced glutathione and 20% glycerol. Cell signaling technology #7908).\n(§2) h. 10 mM ATP solution (Cell signaling technology #9804).\ni. PTP1B (Tyr66) Biotinylated Peptide (Cell signaling technology #1325).\n(§3) j. Phospho-Tyrosine Mouse mAb (P-Tyr-100) (Cell signaling technology #9411).\n(§4) k. HTScan™ Tyrosine Kinase Buffer (4×)\n(§5) (Cell signaling technology #9805).\n(§6) l. 1.25 M DTT (1000×) (Cell signaling technology).\n(§7) The following protocol was used:\n1. Dilute test compound with DMSO to the desired final assay concentration.\n2. Dilute 6 μM substrate peptide (Tyr66) 1:1 with dH2O, add 15 μl to every assay.\n3. Immediately transfer EGFR enzyme from −80° C. to ice. Allow enzyme to thaw on ice.\n4. Take 3 μg EGFR enzyme to the enzyme tube.\n(§8) 5. Add 10 μl of DTT (1.25 M) to 2.5 ml of 4×HTScan™ Tyrosine Kinase Buffer (240 mM HEPES pH 7.5, 20 mM MgCl2, 20 mM MnCl2, 12 μM Na3VO4) to make DTT/Kinase buffer.\n(§9) 6. Transfer 0.75 ml of DTT/Kinase buffer to each enzyme tube to make 4× reaction cocktail. Add 7.5 μl 4× reaction cocktail to every assay.\n7. Add 4 μl ATP (10 mM) to 496 μl dH2O, take 7.5 μl for every assay.\nFinal Assay Conditions for a 30 μl Reaction\n(§10) Incubate reaction tube at 25° C. for 45 minutes. 9. Add 30 μl/assay stop buffer (50 mM EDTA, pH 8.0) to stop the reaction. 10. Transfer 25 μl of each reaction and 75 μl dH2O/well to a 96-well streptavidin coated plate and incubate, with shaking at room temperature for 60 minutes. 11. Wash three times with 200 μl/well PBS-T buffer. Pat plate on paper towel to remove excess liquid. 12. Dilute primary antibody, Phospho-Tyrosine mAb (P-Tyr-100), 1:1000 in PBS-T buffer with 1% BSA. Add 100 μl diluted primary antibody to each well. 13. Incubate, with shaking at room temperature for 60 minutes. 14. Wash as described above in step 11. 15. Dilute Europium labeled anti-mouse IgG 1:500 in PBS-T buffer with 1% BSA. Add 100 μl diluted antibody to each well. 16. Incubate, with shaking at room temperature for 30 minutes. 17. Wash five times with 200 μl/well PBS-T buffer. Pat plate on paper towel to remove excess liquid. 18. Add 100 μl/well DELFIA® Enhancement Solution. 19. Incubate, with shaking at room temperature for 5 minutes. 20. Detect 615 nm fluorescence emission with appropriate Time-Resolved Plate Reader.\n(§11) Calculate the inhibition rate: IR (%)=100−100*(X−B)/(N−B)\n(§12) X=the fluorescence value of the well contained test compound\n(§13) The IC50 value can be derived from the IRs of compounds at different concentration gradients."}, "[2]": {"target": "T2, HER-2/ErbB2 kinase (Homo sapiens, UniProt P04626)", "T2 construct": "purchased Invitrogen corporation #PV3366", "T2 sequence (P04626 23-1255)": "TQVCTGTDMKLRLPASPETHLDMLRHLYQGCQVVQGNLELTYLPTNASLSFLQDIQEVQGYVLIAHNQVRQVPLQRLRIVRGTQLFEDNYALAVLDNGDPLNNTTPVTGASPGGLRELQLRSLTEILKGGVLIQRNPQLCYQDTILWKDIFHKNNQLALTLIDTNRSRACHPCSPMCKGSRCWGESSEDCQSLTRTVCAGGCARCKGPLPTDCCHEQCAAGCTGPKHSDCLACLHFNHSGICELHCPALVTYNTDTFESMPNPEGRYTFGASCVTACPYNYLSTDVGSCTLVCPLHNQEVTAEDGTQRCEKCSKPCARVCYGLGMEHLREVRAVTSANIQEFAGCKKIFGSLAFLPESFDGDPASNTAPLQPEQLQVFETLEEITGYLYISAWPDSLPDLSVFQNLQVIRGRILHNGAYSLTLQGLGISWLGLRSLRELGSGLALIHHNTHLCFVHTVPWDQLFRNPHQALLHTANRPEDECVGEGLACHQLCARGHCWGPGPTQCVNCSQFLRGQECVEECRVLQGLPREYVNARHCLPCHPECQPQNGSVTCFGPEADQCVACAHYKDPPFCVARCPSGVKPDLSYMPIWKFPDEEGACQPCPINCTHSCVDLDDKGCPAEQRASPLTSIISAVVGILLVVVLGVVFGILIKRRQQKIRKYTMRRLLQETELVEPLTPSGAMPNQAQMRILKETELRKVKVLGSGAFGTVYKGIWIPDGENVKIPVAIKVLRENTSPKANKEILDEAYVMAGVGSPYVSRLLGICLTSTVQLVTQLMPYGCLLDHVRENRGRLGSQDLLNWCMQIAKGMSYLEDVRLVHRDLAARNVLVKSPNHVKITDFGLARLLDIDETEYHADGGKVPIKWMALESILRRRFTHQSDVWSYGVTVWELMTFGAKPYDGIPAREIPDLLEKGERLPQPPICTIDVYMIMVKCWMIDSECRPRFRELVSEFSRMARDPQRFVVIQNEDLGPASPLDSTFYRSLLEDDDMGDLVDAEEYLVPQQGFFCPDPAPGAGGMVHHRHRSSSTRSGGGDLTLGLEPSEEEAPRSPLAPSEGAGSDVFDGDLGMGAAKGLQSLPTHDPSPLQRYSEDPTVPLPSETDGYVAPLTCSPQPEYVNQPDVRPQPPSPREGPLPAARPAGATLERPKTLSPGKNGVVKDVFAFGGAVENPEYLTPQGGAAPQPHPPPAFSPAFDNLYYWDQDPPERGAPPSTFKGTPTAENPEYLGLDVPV", "assay": "HER-2 Kinase Assay (ELISA)", "assay_type": "biochemical", "details": "20 μM ATP, 25° C. 60 minutes", "protocol": "An enzyme linked immunosorbent assays (ELISA) was conducted to measure the kinase activity of HER-2 in vitro.\na. Wash Buffer (PBS-T Buffer): 1×PBS (137 mM NaCl; 2.7 mM KCl, 4.3 mM Na2HPO4, 1.4 mM KH2PO4, adjust the pH to 7.2) and 0.05% Tween-20.\nas §1\nc. Stop Buffer: 50 mM EDTA, pH 8.0.\nd. DELFIA® Europium-labeled Anti-mouse IgG (PerkinElmer Life Sciences #AD0124).\ne. DELFIA® Enhancement Solution (PerkinElmer Life Sciences #1244-105).\nf. DELFIA® Streptavidin coated, 96-well, yellow plate (PerkinElmer Life Sciences #AAAND-0005).\ng. HER-2/ErbB2 kinase (Invitrogen corporation #PV3366).\nas §2\ni. FLT3 (Tyr589) Biotinylated Peptide (Cell signaling technology #1305).\nas §3, §4, §5, §6, §7\n1. Dilute test compound with DMSO to the desired final assay concentration. Add 1 μl test compound for every assay, to the negative control.\n2. Dilute 6 μM substrate peptide (Tyr589) 1:1 with dH2O, add 15 μl to every assay.\n3. Immediately transfer HER-2 enzyme from −80° C. to ice. Allow enzyme to thaw on ice.\n4. Take 4.5 μg HER-2 enzyme to the enzyme tube.\nas §8, §9\n7. Add 4 μl ATP (10 mM) to 496 μl dH2O, take 7.5 μl for every assay. Final Assay Conditions for a 30 μl Reaction\nas §10, with “60” for “45”\nas §11, §12, §13"}}, "data": [{"compound": "Cc1c(/C=C2\\C(=O)Nc3ncnc(Nc4ccc(F)c(Cl)c4)c32)[nH]c2c1C(=O)N(CCN1CCOCC1)CC2", "note": "[Example 24, 4-(3-Chloro-4-fluoro-phenylamino)-5-[3-methyl-5-(2-morpholin-4-yl-ethyl)-4-oxo-4,5,6,7-tetrahydro-1H-pyrrolo[3,2-c]pyridine-2-ylmethylenene]-5,7-dihydro-pyrrolo[2,3-d]pyrimidin-6-one]", "values": [{"measurement": "IC50", "setting": "[1]", "value": 310, "unit": "nM"}, {"measurement": "IC50", "setting": "[2]", "value": 830, "unit": "nM"}]}, {"compound": "CCN(CC)CCN1CCc2[nH]c(/C=C3\\C(=O)Nc4cccc(-c5cccc(Cl)c5F)c43)c(C)c2C1=O", "note": "[Example 36, 2-[4-(3-Chloro-2-fluoro-phenyl)-2-oxo-1,2-dihydro-indol-3-ylidenemethyl]-5-(2-diethylamino-ethyl)-3-methyl-1,5,6,7-tetrahydro-pyrrolo[3,2-c]pyridin-4-one]", "values": [{"measurement": "IC50", "setting": "[1]", "value": 180, "unit": "nM"}]}, {"compound": "Cc1c(/C=C2\\C(=O)Nc3cccc(CCO)c32)[nH]c2c1C(=O)N(CCN1CCOCC1)CC2", "note": "[Example 42, 2-[4-(2-Hydroxy-ethyl)-2-oxo-1,2-dihydro-indol-3-ylidenemethyl]-3-methyl-5-(2-morpholin-4-yl-ethyl)-1,5,6,7-tetrahydro-pyrrolo[3,2-c]pyridin-4-one]", "values": [{"measurement": "IC50", "setting": "[2]", "value": 41100, "unit": "nM"}]}, {"compound": "CCN(CC)CCN1CCc2[nH]c(/C=C3\\C(=O)Nc4cccc(Br)c43)c(C)c2C1=O", "note": "[Example 30, 2-(4-Bromo-2-oxo-1,2-dihydro-indol-3-ylidenemethyl)-5-(2-diethylamino-ethyl)-3-methyl-1,5,6,7-tetrahydro-pyrrolo[3,2-c]pyridin-4-one]", "values": [{"measurement": "IC50", "setting": "[1]", "value": 4950, "unit": "nM"}]}, {"compound": "Cc1c(/C=C2\\C(=O)Nc3cccc(C4CCNCC4)c32)[nH]c2c1C(=O)N(CCN1CCOCC1)CC2", "note": "[Example 52, 3-Methyl-5-(2-morpholin-4-yl-ethyl)-2-(2-oxo-4-piperidin-4-yl-1,2-dihydro-indol-3-ylidenemethyl)-1,5,6,7-tetrahydro-pyrrolo[3,2-c]pyridin-4-one]", "values": [{"measurement": "IC50", "setting": "[2]", "value": 8320, "unit": "nM"}]}, {"compound": "CCN(CC)CCN1CCc2[nH]c(/C=C3\\C(=O)Nc4cccc(C5CCNCC5)c43)c(C)c2C1=O", "note": "[Example 31, 5-(2-Diethylamino-ethyl)-3-methyl-2-(2-oxo-4-piperidin-4-yl-1,2-dihydro-indol-3-ylidenemethyl)-1,5,6,7-tetrahydro-pyrrolo[3,2-c]pyridin-4-one]", "values": [{"measurement": "IC50", "setting": "[1]", "value": 210, "unit": "nM"}, {"measurement": "IC50", "setting": "[2]", "value": 980, "unit": "nM"}]}, {"compound": "Cc1c(/C=C2\\C(=O)Nc3cccc(-c4cccc(F)c4F)c32)[nH]c2c1C(=O)N(CCN1CCCC1)CC2", "note": "[Example 59, 2-[4-(2,3-Difluoro-phenyl)-2-oxo-1,2-dihydro-indol-3-ylidenemethyl]-3-methyl-5-(2-pyrrolidin-1-yl-ethyl)-1,5,6,7-tetrahydro-pyrrolo[3,2-c]pyridin-4-one]", "values": [{"measurement": "IC50", "setting": "[2]", "value": 720, "unit": "nM"}]}, {"compound": "CCN(CC)CCN1CCc2[nH]c(/C=C3\\C(=O)Nc4ccc(OC)cc43)c(C)c2C1=O", "note": "[Example 35, 5-(2-Diethylamino-ethyl)-2-(5-methoxy-2-oxo-1,2-dihydro-indol-3-ylidenemethyl)-3-methyl-1,5,6,7-tetrahydro-pyrrolo[3,2-c]pyridin-4-one]", "values": [{"measurement": "IC50", "setting": "[1]", "value": 3320, "unit": "nM"}]}, {"compound": "CCN(CC)CCN1CCc2[nH]c(/C=C3\\C(=O)Nc4cccc(CCO)c43)c(C)c2C1=O", "note": "[Example 37, 5-(2-Diethylamino-ethyl)-2-[4-(2-hydroxy-ethyl)-2-oxo-1,2-dihydro-indol-3-ylidenemethyl]-3-methyl-1,5,6,7-tetrahydro-pyrrolo[3,2-c]pyridin-4-one]", "values": [{"measurement": "IC50", "setting": "[1]", "value": 2890, "unit": "nM"}]}, {"compound": "CCN(CC)CCN1CCc2[nH]c(/C=C3\\C(=O)Nc4cccc(-c5cccc(F)c5F)c43)c(C)c2C1=O", "note": "[Example 39, 5-(2-diethylamino-ethyl)-2-[4-(2,3-difluoro-phenyl)-2-oxo-1,2-dihydro-indol-3-ylidenemethyl]-3-methyl-1,5,6,7-tetrahydro-pyrrolo[3,2-c]pyridin-4-one]", "values": [{"measurement": "IC50", "setting": "[1]", "value": 340, "unit": "nM"}, {"measurement": "IC50", "setting": "[2]", "value": 270, "unit": "nM"}]}, {"compound": "Cc1c(/C=C2\\C(=O)Nc3ncc(Br)cc32)[nH]c2c1C(=O)N(CCN1CCOCC1)CC2", "note": "[Example 50, 2-(5-Bromo-2-oxo-1,2-dihydro-pyrrolo[2,3-b]pyridin-3-ylidenemethyl)-3-methyl-5-(2-morpholin-4-yl-ethyl)-1,5,6,7-tetrahydro-pyrrolo[3,2-c]pyridin-4-one]", "values": [{"measurement": "IC50", "setting": "[1]", "value": 510, "unit": "nM"}]}, {"compound": "CCN(CC)CCN1CCc2[nH]c(/C=C3\\C(=O)Nc4ncnc(Nc5ccc(F)c(Cl)c5)c43)c(C)c2C1=O", "note": "[Example 12, 4-(3-Chlor O-4-fluoro-phenylamino)-5-[5-(2-diethylamino-ethyl)-3-methyl-4-oxo-4,5,6,7-tetrahydro-1H-pyrrolo[3,2-c]pyridine-2-ylmethylene]-5,7-dihydro-pyrrolo[2,3-d]pyrimidin-6-one]", "values": [{"measurement": "IC50", "setting": "[1]", "value": 60, "unit": "nM"}, {"measurement": "IC50", "setting": "[2]", "value": 90, "unit": "nM"}]}, {"compound": "CCN(CC)CCN1CCc2[nH]c(/C=C3\\C(=O)Nc4cccc(-c5ccc(Cl)cc5F)c43)c(C)c2C1=O", "note": "[Example 34, 2-[4-(4-Chloro-2-fluoro-phenyl)-2-oxo-1,2-dihydro-indol-3-ylidenemethyl]-5-(2-diethylamino-ethyl)-3-methyl-1,5,6,7-tetrahydro-pyrrolo[3,2-c]pyridin-4-one]", "values": [{"measurement": "IC50", "setting": "[1]", "value": 940, "unit": "nM"}]}, {"compound": "Cc1c(/C=C2\\C(=O)Nc3ccc(Br)cc32)[nH]c2c1C(=O)N(CCN1CCCC1)CC2", "note": "[Example 40, 2-(5-Bromo-2-oxo-1,2-dihydro-indol-3-ylidenemethyl)-3-methyl-5-(2-pyrrolidin-1-yl-ethyl)-1,5,6,7-tetrahydro-pyrrolo[3,2-c]pyridin-4-one]", "values": [{"measurement": "IC50", "setting": "[1]", "value": 760, "unit": "nM"}]}]}
